Drawing on article PMC3876937 (Protein expression and purification, 2013), this text covers Kd for 1 compound.

The assay deals with T1, YGR257Cp (Mtm1p) (Saccharomyces cerevisiae, UniProt P53320).
T1 sequence (P53320 1-366): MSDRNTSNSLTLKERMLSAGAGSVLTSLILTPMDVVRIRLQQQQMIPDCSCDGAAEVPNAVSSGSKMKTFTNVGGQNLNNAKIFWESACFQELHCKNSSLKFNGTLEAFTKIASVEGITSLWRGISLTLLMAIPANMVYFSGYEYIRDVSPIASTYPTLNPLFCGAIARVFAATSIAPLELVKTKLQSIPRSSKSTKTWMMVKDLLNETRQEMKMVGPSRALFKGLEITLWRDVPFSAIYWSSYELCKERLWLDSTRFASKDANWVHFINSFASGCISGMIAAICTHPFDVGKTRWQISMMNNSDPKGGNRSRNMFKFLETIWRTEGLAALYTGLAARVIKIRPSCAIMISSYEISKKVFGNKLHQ
The experiment in a line: intrinsic tryptophan fluorescence quenching titration. The format is binding.

In turn, `Cc1ncc(COP(=O)(O)O)c(C=O)c1O` [pyridoxal 5′-phosphate] registered a Kd of 700 ± 20 nM.

One may read the Kd as the equilibrium constant for the complex coming apart. A lower Kd goes with higher affinity.
